Experimental data reported in patent publication US8796457B2, “Compound useful for the treatment of degenerative and inflammatory diseases” (Galapagos NV, priority 2009, dated 2014).

Tests used:
JAK2 = JAK2 (Homo sapiens (Human), UniProt O60674); experiment: JAK2 Ki determination assay (Ulight-JAK-1 peptide); assay type: biochemical; conditions: Lineweaver-Burk; Ulight-JAK-1 (Tyr1023) peptide, alternative protocol
Description: Alternatively, for the determination of Ki, different amounts of inhibitor were mixed with the enzyme and the enzymatic reaction was followed as a function of ATP concentration. […] 0.0125 mU of JAK2 (Invitrogen, PV4210) was used in the assay. The substrate was 50 nM Ulight-JAK-1 (Tyr1023) Peptide (Perkin Elmer, TRF0121). The reaction was performed in 25 mM HEPES pH 7.0, 0.01% Triton X-100, 2 mM DTT, 7.5 mM MgCl2 with varying concentrations of ATP and compound. Phosphorylated substrate was measured using an Eu-labeled anti-phosphotyrosine antibody PT66 (Perkin Elmer, AD0068). Readout was performed on the envision (Perkin Elmer) with excitation at 320 nm and emission followed at 615 nm and 665 nm.

[1] = test system: JAK1-dependent pathway (IL-6 stimulated STAT1 phosphorylation, CD4+ cells) in human whole blood; experiment: Whole blood assay, IL-6 stimulation, Phospho-STAT1 FACS; assay type: cell-based
Description: A flow cytometry analysis was also performed to establish compound selectivity for JAK1 over JAK2, ex vivo using human whole blood.
Remaining diluted Lyse/Fix buffer was discarded.
The stock solution was stored aliquoted at −80° C.
Control-treated samples received DMSO instead of compound.
Human blood was collected in heparinized tubes.

[2] = test system: collagen induced arthritis; experiment: Rat collagen induced arthritis (CIA) model; assay type: in vivo
Description: Completed Freund's adjuvant (CFA) and incomplete Freund's adjuvant (IFA) were purchased from Difco. Bovine collagen type II (CII), lipopolysaccharide (LPS), and Enbrel were obtained from Chondrex (Isle d'Abeau, France); Sigma (P4252, L'Isle d'Abeau, France), Whyett (25 mg injectable syringe, France) Acros Organics (Palo Alto, Calif.), respectively. All other reagents used were of reagent grade and all solvents were of analytical grade.
Dark Agouti rats (male, 7-8 weeks old) are obtained from Harlan Laboratories (Maison-Alfort, France). DBA/1J mice (male, 7 weeks old) were obtained from Centre d'Elevage et de Reproduction JANVIER (CERJ) (Laval, France). Rats and mice were kept on a 12 hours light/dark cycle (0700-1900). The temperature was maintained at 22° C., and food and water were provided ad libitum.
One day before the experiment, CII solution (2 mg/mL) was prepared with 0.05 M acetic acid and stored at 4° C. Just before the immunization, equal volumes of adjuvant (IFA) and CII were mixed by a homogenizer in a pre-cooled glass bottle in an ice water bath. Extra adjuvant and prolonged homogenization might be required if an emulsion is not formed.
Rat: 0.2 mL of the emulsion is injected intradermally at the base of the tail of each rat on day 1, a second booster intradermal injection (CII solution at 2 mg/mL in CFA 0.1 mL saline) is performed on day 9. This immunization method is modified from published methods (Sims N A et al., (2004) Targeting osteoclasts with zoledronic acid prevents bone destruction in collagen-induced arthritis, Arthritis Rheum. 50 2338-2346; Jou et al., 2005).
The therapeutic effects of the test compounds were tested in the rat or mouse CIA model. Animals were randomly divided into equal groups and each group contained 10 animals. All rats are immunized on day 1 and boosted on day 9. All mice were immunized on day 1 and boosted on day 21. Therapeutic dosing lasted from day 16 to day 30. The negative control group was treated with vehicle (MC 0.5%) and the positive control group with Enbrel (10 mg/kg, 3× week., s.c.). A compound of interest was typically tested at 3 doses, e.g. 3, 10, 30 mg/kg, p.o.
Arthritis was scored according the method of Khachigian 2006, Lin et al 2007 and Nishida et al. 2004). […]
AUC of clinical score (AUC score): The area under the curve (AUC) from day 1 to day 14 was calculated for each individual rat. The AUC of each animal was divided by the average AUC obtained for the vehicle in the study from which the data on that animal was obtained and multiplied by 100 (i.e. the AUC was expressed as a percentage of the average vehicle AUC per study).
Clinical score increase from day 1 to day 14 (End point score): The clinical score difference for each animal was divided by the average clinical score difference obtained for the vehicle in the study from which the data on that animal was obtained and multiplied by 100 (i.e. the difference was expressed as a percentage of the average clinical score difference for the vehicle per study).
Post-mortem, a Larsen' score was derived for both hind paws of all rats by at least 2 scientists. The average of these scores was calculated to obtain one Larsen' score per rat. […]

Sequence of JAK2 (O60674 849-1124): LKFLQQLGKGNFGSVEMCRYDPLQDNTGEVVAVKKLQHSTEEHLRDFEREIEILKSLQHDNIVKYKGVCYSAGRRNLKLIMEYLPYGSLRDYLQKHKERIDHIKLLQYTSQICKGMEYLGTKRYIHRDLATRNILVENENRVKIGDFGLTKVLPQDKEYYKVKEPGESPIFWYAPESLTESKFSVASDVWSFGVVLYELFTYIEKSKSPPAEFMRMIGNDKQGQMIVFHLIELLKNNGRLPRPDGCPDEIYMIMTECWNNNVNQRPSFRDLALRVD

## CC1(C)CN(C(=O)c2ccc(-c3cccc4nc(NC(=O)C5CC5)nn34)cc2)C1 [Compound 1, Cyclopropanecarboxylic acid{5-[4-(3,3-dimethyl-azetidine-1-carbonyl)-phenyl]-[1,2,4]triazolo[1,5-a]pyridin-2-yl}-amide]
JAK2
  Ki: 0.035 µM
[1]; Homo sapiens, IL-6 stimulation, FACS, CD4+ cells, mean of 3 healthy volunteers, read-out: pIC50 in the inhibition of STAT1 phosphorylation (converted)
  IC50: 0.245 µM
[1]; IL-6 pSTAT1 vs GM-CSF pSTAT5, human whole blood FACS
  selectivity for JAK1 vs. JAK2 (STAT1 vs STAT5): 17.6 fold
[2]; rat CIA
  dose from which significant improvement of paw swelling was seen: ≥ 1 mg/kg
  dose from which significant improvement of the AUC of the clinical score was seen: ≥ 10 mg/kg
  dose from which significant improvement of the Larsen' score was seen: ≥ 30 mg/kg
  dose from which significant improvement of the endpoint clinical score was seen: ≥ 1 mg/kg
[2]; rat, 30, 10, 3, and 1 mg/kg
  efficacy in the rat CIA study: efficacious in all readouts
